# Experimental data reported in patent US20200397764A1, “VAP-1 INHIBITORS FOR TREATING PAIN” (BENEVOLENTAI CAMBRIDGE LIMITED, priority 2015, published 2020).
# Assays:
# human VAP-1 (SSAO) = target: T1, human VAP-1 (SSAO) (Homo sapiens, UniProt Q16853); test: VAP-1 Inhibition Assay (benzylamine substrate, HRP-coupled hydrogen peroxide or 14C benzaldehyde detection); type: biochemical; conditions: purified recombinant human VAP-1 (SSAO), room temperature
# T1 construct: made in house
# T1 sequence (Q16853 29-763 limits assumed): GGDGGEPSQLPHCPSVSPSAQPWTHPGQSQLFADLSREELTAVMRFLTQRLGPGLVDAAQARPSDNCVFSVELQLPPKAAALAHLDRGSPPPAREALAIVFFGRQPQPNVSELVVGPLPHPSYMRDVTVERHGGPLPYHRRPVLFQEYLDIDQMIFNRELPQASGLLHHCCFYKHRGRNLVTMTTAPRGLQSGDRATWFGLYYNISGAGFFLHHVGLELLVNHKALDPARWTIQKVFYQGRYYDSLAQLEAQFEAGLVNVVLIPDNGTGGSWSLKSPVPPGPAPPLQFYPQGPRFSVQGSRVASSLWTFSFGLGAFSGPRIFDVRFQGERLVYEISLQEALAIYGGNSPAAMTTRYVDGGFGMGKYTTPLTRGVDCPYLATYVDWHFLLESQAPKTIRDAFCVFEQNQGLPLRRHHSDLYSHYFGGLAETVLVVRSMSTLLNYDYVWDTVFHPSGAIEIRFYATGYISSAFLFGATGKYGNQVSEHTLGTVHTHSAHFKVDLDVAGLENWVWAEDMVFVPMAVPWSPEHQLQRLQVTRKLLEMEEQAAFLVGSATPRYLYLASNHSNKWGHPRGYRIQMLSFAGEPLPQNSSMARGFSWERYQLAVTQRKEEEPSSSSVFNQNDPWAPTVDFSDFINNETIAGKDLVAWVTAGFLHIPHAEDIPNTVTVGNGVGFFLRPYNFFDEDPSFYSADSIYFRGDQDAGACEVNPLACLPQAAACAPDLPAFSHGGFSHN
# Description: This assay is performed at room temperature with purified recombinantly expressed human VAP-1 (SSAO). Enzyme was prepared essentially as described in Ohman et al. (Protein Expression and Purification 46 (2006) 321-331). The enzyme activity is assayed with benzylamine as substrate by measuring either benzaldehyde production, using 14C-labeled substrate, or by utilizing the production of hydrogen peroxide in a horseradish peroxidise (HRP) coupled reaction. Briefly, test compounds are dissolved in dimethyl sulfoxide (DMSO) to a concentration of 10 mM. […]
# Hydrogen peroxide detection: In a horseradish peroxidise (HRP) coupled reaction, hydrogen peroxide oxidation of 10-acetyl-3,7-dihydroxyphenoxazine produces resorufin, which is a highly fluorescent compound (Zhout and Panchuk-Voloshina. Analytical Biochemistry 253 (1997) 169-174; Amplex® Red Hydrogen Peroxide/peroxidise Assay kit, Invitrogen A22188). […] Benzylarnine concentration is fixed at a concentration corresponding to the Michaelis constant, determined using standard procedures. Fluorescence intensity is then measured at several time points during 1-2 hours, exciting at 544 nm and reading the emission at 590 nm. […] The inhibition is measured as % decrease of the signal compared to a control without inhibitor (only diluted DMSO). […]
# [1] = system: adjuvant-induced arthritis; test: Adjuvant-induced arthritis model, Randall Selitto assay (mechanical hyperalgesia); type: in vivo, rat; conditions: Lewis rats, dosed day 0 to day 28: LJP1207 30 mg/kg po qd, MTX 0.25 mg/kg ip 3 times per week; assessed day 7, 14, 18, 21, 25, 28; FIG. 2
# Description: Rats injected into the hindpaw with a mixture of Mycobacterium butirricum emulsified in light mineral oil develop a severe polyarthritis which shares some features in common with human rheumatoid arthritis (RA), such as swelling of the extremities, cartilage degradation, loss of joint function and lymphocyte infiltration into diseased joints. This model was originally described more than 60 years ago (Pearson et al., Arthritis and Rheumatology. 1959. 2(5), 440-459) and is still the most widely used assay to identify chemical agents having a potential therapeutic efficacy in RA. […] Furthermore, this is a well-established model for inflammatory pain, especially longer-term (i.e. chronic) inflammatory pain.
# Male Lewis rats (220-230 g) were housed in propylene cages with food and water ad libitum. The light cycle was automatically controlled and the room temperature thermostatically regulated to 21±1° C. Prior to the start of the experiment animals were housed in these conditions for 6-8 days.
# Rats were anaesthetized before induction of CFA and then were treated orally starting from day 0 to day 28 with LJP1207 (30 mg/kg po qd) or methotrexate (MTX, 0.25 mg/kg ip 3 times per week). Control rats received the vehicle e.g. PBS starting from day 0. […] The development of arthritis was assessed at day 7, 14, 18, 21, 25 and 28. […]
# human SSAO = target: T2, human SSAO (Homo sapiens, UniProt Q16853); conditions: Salter-Cid et al., J Pharmacol Exp Ther. 2005; read-out: human SSAO, IC(50); cited from earlier work
# T2 sequence (Q16853 1-763): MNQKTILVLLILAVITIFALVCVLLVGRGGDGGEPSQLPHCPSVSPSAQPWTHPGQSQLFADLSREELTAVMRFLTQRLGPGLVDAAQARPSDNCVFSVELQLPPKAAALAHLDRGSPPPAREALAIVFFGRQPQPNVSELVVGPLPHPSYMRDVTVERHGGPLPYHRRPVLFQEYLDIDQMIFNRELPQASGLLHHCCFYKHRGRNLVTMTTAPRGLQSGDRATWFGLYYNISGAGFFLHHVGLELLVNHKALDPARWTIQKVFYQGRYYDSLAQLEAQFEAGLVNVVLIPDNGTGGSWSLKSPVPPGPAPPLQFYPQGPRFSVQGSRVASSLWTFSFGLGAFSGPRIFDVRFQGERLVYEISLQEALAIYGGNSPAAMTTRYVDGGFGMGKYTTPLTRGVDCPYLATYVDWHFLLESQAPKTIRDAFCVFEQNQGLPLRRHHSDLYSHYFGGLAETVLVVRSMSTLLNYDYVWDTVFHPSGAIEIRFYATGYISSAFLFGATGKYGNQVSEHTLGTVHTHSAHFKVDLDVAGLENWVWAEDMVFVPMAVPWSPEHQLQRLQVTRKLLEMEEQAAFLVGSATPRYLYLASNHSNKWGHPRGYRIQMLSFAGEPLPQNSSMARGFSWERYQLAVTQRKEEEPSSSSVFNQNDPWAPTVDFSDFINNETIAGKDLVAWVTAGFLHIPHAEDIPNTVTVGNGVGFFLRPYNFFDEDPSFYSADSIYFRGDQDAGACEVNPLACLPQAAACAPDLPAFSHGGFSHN
IC50 (human VAP-1 (SSAO)),SMILES,"inhibition of paw withdrawal (nociceptive threshold, Randall Selitto) [1]",IC50 (human SSAO)
37 nM,"CC(C)[C@H]1c2[nH]cnc2CCN1C(=O)O[C@H]1CCOC1 [Compound 1, (3S)-Tetrahydrofuran-3-yl (4S)-4-isopropyl-1,4,6,7-tetrahydro-5H-Imidazo[4,5-c]pyridine-5-carboxylate]",–,–
–,"C=C(CNN)c1ccccc1.Cl [LJP1207, N′-(2-phenyl-allyl)-hydrazine hydrochloride]","significant inhibition at day 21, 25 and 28",17 nM
–,"CN(Cc1cnc2nc(N)nc(N)c2n1)c1ccc(C(=O)N[C@@H](CCC(=O)O)C(=O)O)cc1 [MTX, methotrexate]",significant inhibition starting at day 18 up to day 28,–
